We go through 1 substance from paper doi:10.1101/2025.02.26.640323, “Aggregation-Dependent Epitope Sequence and Modification Fingerprints of Anti-Aβ Antibodies” (bioRxiv, 2025).

For data set [1], the system named is Aβ vascular and parenchymal deposits in AD brain sections. As to the kind of experiment: Immunohistochemistry on AD brain tissue with antibody pre-adsorption. As to conditions: 1 μg Donanemabbs with 2.5 μg peptide; human AD brain. Also noted: species or system human. On the procedure:
Immunohistochemistry was performed on 4-μm paraffin sections. In brief, brain sections were deparaffinized in Roticlear (Carl Roth, Karlsruhe, Germany) and rehydrated in a descending series of ethanol. Activity of endogenous peroxidases was blocked by incubation in 0.3% H2O2 in PBS for 30 min. […] Antibodies and peptides were incubated on a rotator for 3 h at room temperature and reaction tubes were centrifuged at 13000 rpm for 5 min at the end of the incubation period. Control conditions included antibodies in 0.01 M PBS including 10% FCS without synthetic peptides. Adjacent paraffin-embedded sections from a human AD case were incubated overnight with the supernatants and sections were washed with 0.01 M PBS including 0.1 % Tergitol. For detection, biotinylated anti-human antibodies (6 μg/ml, Jackson ImmunoResearch, West Grove, Pennsylvania, USA #109-065-003) were used and staining was visualized with the ABC method with a Vectastain kit (Vector Laboratories, Newark, California, USA), diaminobenzidine as a chromogen and counterstaining with hematoxylin.

Another data set relates to Aβ(−10–18). As to the kind of experiment: Deep mutational scans of 18-meric Aβ peptides on microarray. Format: binding, human.
For another data set, the system named is AβpE3-x. Put plainly: PTM-Aβ microarray, pE3. As to conditions: Donanemabbs 0,0012μg/mL, 2–48, Aβ-pE3, IC16 […], vs Aβ3-x with non-cyclized Glu. Format: binding, human. The source says:
(§1) Specific PTMs might be associated with different stages of AD progression and severity, offering potential biomarkers for diagnosis and prognosis. Targeting PTMs represents a potential therapeutic strategy to prevent Aβ aggregation and neurotoxicity, thereby slowing disease progression. […] Therefore, a selected group of PTM-carrying Aβ peptides (PTM-Aβ) were incorporated into the Aβ chip to explore the potential binding preference of selected Aβ-Abs, under optimized concentrations (Figure 3). The antibodies were tested with both PTM-Aβ and the corresponding unmodified variants to provide a head-to-head comparison. This screening was performed in the presence of Aβ phosphorylated at positions Ser(8) or Ser(26), N-terminal pE at position 3, racemization/isomerization of Asp at position 1, and unmodified N-terminal variants. The dataset is divided into sections (Figure 3 a–f) for enhanced visualization, where each antibody was screened simultaneously against all peptides to locate their epitope preferences. […] A set of antibodies without reported PTM preference was applied here as controls (refer to Table 1), namely 11H3, 101–1-1, IC16, 82E1 and 3D6.
(§2) Figure 3. […] Blue and red shades indicate the binding strength over the related arrayed […] modified peptide shown on top and cognate anti-Aβ antibody to the left. […]

Data set [2] deals with PTM-carrying Aβ peptides (PTM-Aβ). As to the kind of experiment: PTM-Aβ microarray, general. The format is binding, human. The settings on record: general statement.
Description: as §1, §2

Data set [3] relates to Aβ1–42 monomer, oligomer and fibril preparations; AβpE3–40. Put plainly: Bistris-SDS gradient PAGE/Western blot. The settings on record: 4–12% Bistris SDS-PAGE. The format is binding. Here is the method:
No SPR-487B) (StressMarq biosciences, Victoria, BC, Canada). The samples for electrophoresis were prepared (starting from stock solutions) with final concentrations of 0.1 μg/μL) in LDS sample buffer (247.5 mM Tris-HCl, pH 8.5, 2% (w/v) lithium dodecyl sulfate (LDS), 10% (v/v) glycerol, 0.5 mM EDTA, 0.22 mM Brilliant Blue G250, 0.175 mM Phenol Red) and denatured by heating at 70°C for 10 min. […] The prechilled transfer buffer contained 25 mM Tris, 192 mM glycine, 20% (v/v) methanol and 0.0375 % Tween-20. After blotting, the membrane was washed for 10 min at room temperature in Tris-buffered saline (TBS) followed by blocking for 30 min with 5% powdered milk in TBS containing 0.1% Tween-20 (TBS-T). The blots were then incubated with primary antibodies in 5% milk in TBS-T over night at 4°C and washed 3 × for 10 min with TBS-T at room temperature. […] After 1 h incubation with the secondary antibodies, the blots were washed 3 × for 10 min with TBS-T and incubated for 5 min with ECL-Prime Western Blotting Detection Reagent (Cytiva Amersham, Little Chalfont, England). Images were recorded on a Vilber-Loumart Fusion SL blot imager. […] That way, the 4G8 reprobing signals were essentially added on top of the initial signals and background artifacts.
A general note: In western blotting, separated proteins are transferred to a membrane and probed.

The next data set has as its system synthetic Aβ peptides. Put plainly: Peptide Bicine-Tris SDS-PAGE/Western blot. Format: binding. The settings on record: PVDF, 50 ng per peptide, 0.5 μg/mL antibody.

“Also recorded” adds a separate entry of the source.

“Donanemabbs: humanized monoclonal, biosimilar of Donanemab, Proteogenix (#PX-TA1549)”: in data set [1], the “IHC immunoreactivity after pre-adsorption with Aβ1–40” value is on record as “not suppressed”, the “IHC immunoreactivity after pre-adsorption with Aβ3–40” value is “not suppressed” and the “IHC immunoreactivity after pre-adsorption with AβpE3–40” value is on record as “efficiently suppressed; also recorded: effectively attenuated”. In addition, the “core motif / main contacts / epitope” value in the data set with Aβ(−10–18) (18-mer deep mutational scan, core position if >50% of exchanges reduce binding by >50%) is “EFRHDSGY”. Besides, the “residue conservation at Asp(1) and Ala(2)” value in the data set on Aβ(−10–18) (Aβ1–18 deep mutational scan) was “Asp(1) and Ala(2) were not highly conserved”. Also, in the data set on AβpE3-x, the “selectivity for / binding to AβpE3-x” value was “high selectivity for Aβ peptides starting with an N-terminal pE”. For the same substance, the “preference for PTMs” value in data set [2] is listed as “exhibited the previously reported preferences for PTMs”. For the same substance, in data set [3], the “detection of AβpE3–40, Bistris Western blot” value was “detected multiple AβpE3–40 bands in the low Mwrange”; the “detection of HFIP-treated monomeric, oligomeric and fibrillar Aβ1–42” value is reported as “very faint signals”. In the data set on synthetic Aβ peptides, the “Aβ variants detected on Bicine-Tris SDS-PAGE/Western blot” value was “detected AβpE3–40 and Aβ3–40”.
